Results from patent publication US6160166A, “Phosphonated agents and their antiangiogenic and antitumorigenic use” (priority 1999, dated 2000).
Entries after “also recorded” stand apart in the source; their conditions may differ.

Key:
[1] = tested on: angiogenesis in mouse (Matrigel plus bFGF and heparin); conditions: Pesenti et al. (1992); cited from earlier work
HMEC-1 = HMEC-1 cell growth, total protein and total DNA; type: cell-based, human
Protocol: Logarithmically growing HMEC-1 or HMVEC-d cells are seeded at 2×10^4 cells/well in six well plates (Falcon) containing 2 ml of MCDB-131 medium supplemented with 5% fetal bovine serum (FBS) (Hyclone). […] After removal of medium, the cell layer is washed twice with 1 ml of cold Hanks balanced salt solution and the cells are dislodged by trypsinization. The cells are collected in microcentrifuge tubes and washed twice with 1 ml of cold phosphate-buffered saline, and then 1 ml of cold 10% trichloroacetic acid are added. Acid precipitable radioactivity are collected on a glass fiber filter (Whatman Grade GF/C) and the radioactivity is determined in a liquid scintillation spectrometer (Packard).

[2] = tested on: porcine pulmonary artery macrovascular endothelial cell; experiment: Porcine pulmonary artery macrovascular endothelial cell growth, total protein and total DNA; type: cell-based
[3] = target: cyclic AMP-dependent protein kinase; conditions: Mahoney et al., 1990; cited from earlier work
[4] = tested on: human microvascular endothelial cells; experiment: Detachment / toxicity of cultured human microvascular endothelial cells; type: cell-based
[5] = tested on: tyrosine specific phosphorylation of cellular proteins; conditions: Ghosh and Miller, 1993; cited from earlier work
prostate carcinoma cells = conditions: after 24 hr exposure (Qiao et al., 1994); cited from earlier work
DNA synthesis = conditions: Jindal et al. (1990); cited from earlier work
PKC type I-III = conditions: Mahoney et al., 1990; read-out: ID50, PKC type I-III activity; cited from earlier work
[6] = tested on: human microvascular endothelial cells; experiment: Sensitivity of microvascular versus large vessel endothelium to inhibition; type: cell-based
[7] = tested on: human dermal Microvascular endothelial cells; experiment: Inhibition of bFGF-stimulated growth of human microvascular endothelial cells; type: cell-based; conditions: Homo sapiens, Endothelial cell; bFGF-stimulated; estimated from dose response curve
Protocol: Inhibition of cell growth was evaluated by measuring total protein and total DNA and the IC50 was estimated for each dose response curve.

[8] = tested on: human microvascular endothelial cells (HMEC-1, HMVEC-d); experiment: 3H-Leucine incorporation, inhibition of protein synthesis; type: cell-based; conditions: time course
Protocol: For each time period, six replicate flasks are set up. The volume of the medium MCDB-131 is 10 ml per flask. After incubation, the medium was replaced with fresh MCDB-131 containing […] of ^3 H-leucine and incubated for a further 90 min. TritonX-100 (240 μl, 10%) were then added to the contents of each flask and agitated. Trichloroacetic acid (TCA) (4 ml, 20%) is added, the contents mixed and the flasks left overnight at room temperature. After 24 hr, the flask contents was suspended by shaking, transferred to tubes and centrifuged at 4300 g. The pellets were resuspended in 10% TCA and recentrifuged and then resuspended in 3.0 ml of 0.1 M NaOH. Half of this volume was transferred to scintillation vials in 10 ml of Emulsifier Safe scintillation fluid (Packard) while the remaining 1.5 ml was used to assay DNA content (LaBarca and Paigen, 1980). The radioactive counts due to protein synthesized in the presence of ^3 H-leucine was normalized to counts/μg DNA. Protein synthesis by cells treated with the phosphonic acid agents are expressed relative to that of control cells as the percent of inhibition for each time of incubation.
After this period of time, the rate steadily declines.

[9] = tested on: chick chorioallantoic membrane (CAM); experiment: Chick egg chorioallantoic membrane (CAM) assay, 11-day, established vessels; type: in vivo
Protocol: According to Ausprunk et al. (1974), capillary angiogenesis in the CAM is completed by day 11. Measurements of intercapillary distances are also consistent with the cessation of capillary growth after day 10. […] The implants were prepared as previously described by Gagliardi et al. (1992), implanted on day 11 and read on day 13.
(§1) Comparison of the inhibition of angiogenesis by 70 nmol of
(§2) suramin or a equimolar amount of a phosphonic acid agents in the
(§3) 6-day and 11-day chick egg chorioallantoic (CAM) assay.

[10] = tested on: fetal bovine aortic endothelial cells; conditions: Takano et al., 1994; cited from earlier work
Toxicity in vivo in mice = experiment: Toxicity in vivo in mice; design: species or system mouse
Protocol: Mice were injected intraperitoneally with 0-150 μM/kg body weight of the compounds to be tested, every other day for a total of five injections. The animals were carefully observed daily and weighed every third day for 28 days after the last injection. After the 28-day observation period, the animals were euthanized, blood was collected through cardiac puncture and the following tissues were subjected to histological investigation: heart, lungs, liver, spleen, adrenal gland, kidney, sciatic nerve, soleus muscle and brain.
It is clear from studies so far that compounds with equipotent or greater antitumor activity but with substantially lower toxicity are of considerable potential therapeutic value as an antitumorigenic or antiangiogenic agent. […] The animals were carefully observed daily and weighed every third day for 28 days after the last injection. After the 28-day observation period, the animals were euthanized, blood was collected through cardiac puncture and the following tissues were kept for histological investigation: heart, lungs, liver, spleen, adrenal gland, kidney, sciatic nerve, soleus muscle and brain.

[11] = tested on: chick chorioallantoic membrane (CAM); experiment: Chick egg chorioallantoic membrane (CAM) assay, 6-day, growing vessels: inhibition of angiogenesis; type: in vivo
Text: The purpose of this experiment was to test the ability of the phosphonic acid agents described above to inhibit angiogenesis. […]
as §1, §2, §3

[12] = tested on: different cancer cell lines; experiment: MTT cell proliferation, different cancer cell lines; type: cell-based, human; conditions: cancer cell lines in vitro
p34cdc2 kinase = conditions: literature; extracts from human small cell lung cancer cells; cited from earlier work

## Cc1ccc(C(=O)Nc2ccc(S(=O)(=O)O)c3cc(S(=O)(=O)O)cc(S(=O)(=O)O)c23)cc1NC(=O)c1cccc(NC(=O)Nc2cccc(C(=O)Nc3cc(C(=O)Nc4ccc(S(=O)(=O)O)c5cc(S(=O)(=O)O)cc(S(=O)(=O)O)c45)ccc3C)c2)c1 [suramin]
[1]
  inhibition of angiogenesis in vivo, in words: effective inhibitor of angiogenesis in vivo
HMEC-1; 50-100 μg/ml
  effect on cell growth: stimulatory effect on cell growth
HMEC-1; suramin higher than 250 μg/ml, agents lower concentrations
  effect on total protein and total DNA: significant dose-related reduction in total protein and total DNA
HMEC-1; up to 100 μg/ml
  effect on HMEC-1 cell growth: did not have any significant inhibitory effect
[2]; suramin higher than 250 μg/ml
  effect on total protein and total DNA: significant dose-related reduction in total protein and total DNA
[2]; up to 100 μg/ml
  effect on porcine pulmonary artery macrovascular endothelial cell growth: did not have any significant inhibitory effect
[3]
  IC50: 656 µM
[4]; 24 hr of treatment
  floating cells: a large number of floating cells
[4]; concentrations higher than 200 μM
  time for detection of suramin toxicity on endothelial cells: > 12 h
[5]
  effect on tyrosine specific phosphorylation: increase the global tyrosine specific phosphorylation of cellular proteins in vivo
Prostate carcinoma cells
  effect on cell cycle: slowly arrested in the G1 phase
DNA synthesis
  effect on DNA synthesis: inhibitory action of suramin on DNA synthesis
PKC type I-III
  IC50: 50 µM
[6]
  sensitivity of microvascular versus large vessel endothelium: much more sensitive to inhibition
[7]
  IC50: 437 µM
[8]
  effect on protein synthesis: no change in the rate of protein synthesis until suramin and the cells have been incubated together for at least 24 hr
[9]; 70 nmol or equimolar amount
  11-day CAM % Inhibition: 50%
[9]; established vessels
  inhibitory activity in the 11-day CAM, in words: showed antiangiogenic activity; also recorded: clearly affected both the growing and established vascular cells
[10]
  concentration inhibiting plasminogen activator activity induced by bFGF: higher than 250 μg/ml
Toxicity in vivo in mice; 150, 75 and 35 μM/kg body weight, injection period
  reduction in body weight: 10-15%
Toxicity in vivo in mice; after 28-day observation, suramin or equimolar doses
  histological findings: dose-related frequency of lipoid degeneration of the zona reticularis of the adrenal gland and vacuolar changes in the proximal convoluted tubules of the renal tubular epithelium
Toxicity in vivo in mice; i.p., every other day, five injections, suramin 150 μM/kg, agents up to 150 μM/kg
  mortality: died before completion of the five injections
Toxicity in vivo in mice; i.p., five injections, 28 days observation
  body weight, in words: body weight stabilized but did not return to normal
[11]; 70 nmol or equimolar amount, 6-day CAM
  6-day CAM % Inhibition of angiogenesis: 64%
[11]; 6-day CAM, rapidly growing vessels
  inhibition of angiogenesis in the 6-day CAM, in words: showed antiangiogenic activity; also recorded: clearly affected both the growing and established vascular cells
[11]; CAM assay
  ID50, dose that produces 50% inhibition of angiogenesis: 75 nmol
[12]
  antiproliferative activity, in words: inhibited cell proliferation in a dose-related manner
p34cdc2 kinase
  effect on purified cdc2 kinase / tyrosine phosphorylation: direct inhibitory effect on purified cdc2 kinase and also modulates the tyrosine phosphorylation of cdc2 kinase
